Measurements published in patent publication US20150018311A1, “THERAPEUTIC BORON-CONTAINING COMPOUNDS” (priority 2012, published 2015).

Tests used:
Assay in all cases: Growth in liquid media in presence of test compound
Type in all cases: cell-based
[1] = system: Mycobacterium tuberculosis (H37Rv)
[2] = system: Staphylococcus aureus (ATCC 25923)
[3] = system: Escherichia coli (ATCC 25922)
[4] = system: Candida albicans (ATCC 90028)
[5] = system: Pseudomonas aeruginosa (ATCC 27853)
[6] = system: Streptococcus pyogenes (ATCC 19615)

| SMILES | Growth in the presence of test compound, M. tuberculosis ([1]; 5 mg/L) | Growth in the presence of test compound, M. tuberculosis ([1]; 50 mg/L) | Growth in the presence of test compound, M. tuberculosis ([1]; 500 mg/L) | Growth in the presence of test compound, S. aureus ([2]; 5 mg/L) | Growth in the presence of test compound, S. aureus ([2]; 50 mg/L) | Growth in the presence of test compound, S. aureus ([2]; 500 mg/L) | Growth in the presence of test compound, E. coli ([3]; 5 mg/L) | Growth in the presence of test compound, E. coli ([3]; 50 mg/L) | Growth in the presence of test compound, E. coli ([3]; 500 mg/L) | Growth in the presence of test compound, C. albicans ([4]; 5 mg/L) | Growth in the presence of test compound, C. albicans ([4]; 50 mg/L) | Growth in the presence of test compound, C. albicans ([4]; 500 mg/L) | Growth in the presence of test compound, P. aeruginosa ([5]; 5 mg/L) | Growth in the presence of test compound, P. aeruginosa ([5]; 50 mg/L) | Growth in the presence of test compound, P. aeruginosa ([5]; 500 mg/L) | Growth in the presence of test compound, S. pyogenes ([6]; 5 mg/L) | Growth in the presence of test compound, S. pyogenes ([6]; 50 mg/L) | Growth in the presence of test compound, S. pyogenes ([6]; 500 mg/L) |
| --- | --- | --- | --- | --- | --- | --- | --- | --- | --- | --- | --- | --- | --- | --- | --- | --- | --- | --- |
| Cl.Cl.NCCCC[C@@H](N)C(=O)NC[C@@H](Cc1ccccc1)B(O)O [Compound 48] | ± | − | − | + | + | + | + | + | + | + | + | + | + | + | + | + | + | + |
| CC1(C)C2CC3OB([C@@H](CNC(=O)[C@@H](N)Cc4ccccc4)Cc4ccc(F)cc4)O[C@]3(C)C1C2.Cl (stereo partly drawn) [Compound 49] | ± | − | − | + | + | + | + | + | + | + | + | + | + | + | + | + | + | + |
| Cl.N[C@@H](Cc1ccccc1)C(=O)NC[C@@H](Cc1ccc(F)cc1)B(O)O [Compound 50] | ± | − | − | + | + | − | + | + | − | + | + | + | + | + | ± | + | + | − |
| CC1(C)C2CC3OB(C(CNC(=O)C(N)CCCCN)Cc4ccc(F)cc4)OC3(C)C1C2.Cl.Cl (stereo not drawn) [Compound 51] | + | − | − | + | + | − | + | + | − | + | + | − | + | + | − | + | + | − |
| Cl.Cl.NCCCC[C@H](N)C(=O)NC[C@@H](Cc1ccc(OC(F)(F)F)cc1)B(O)O [Compound 52] | ± | ± | − | + | + | + | + | + | + | + | + | − | + | + | + | + | + | ± |
| CC1(C)C2CC3OB(C(CNC(=O)C(N)CCCCN)Cc4ccc(OC(F)(F)F)cc4)OC3(C)C1C2.Cl.Cl (stereo not drawn) [Compound 53] | ± | − | − | + | + | + | + | + | + | + | + | − | + | + | − | + | + | − |
| CC1(C)C2CC3OB(CC(Cc4ccccc4)NC(=O)C(N)CCCCN)OC3(C)C1C2 (stereo not drawn) [Compound 54] | + | + | − | + | + | − | + | + | − | + | + | − | + | + | − | + | + | − |
| CC1(C)C2CC3OB([C@@H](CNC(=O)[C@@H](N)Cc4ccccc4)Cc4ccc(OC(F)(F)F)cc4)O[C@]3(C)C1C2.Cl (stereo partly drawn) [Compound 55] | − | − | − | + | ± | + | + | + | + | + | + | ± | + | + | + | + | ± | + |
| C[C@H](N)C(=O)NC[C@@H](Cc1ccc(OC(F)(F)F)cc1)B1OC2CC3CC(C3(C)C)[C@@]2(C)O1.Cl (stereo partly drawn) [Compound 56] | + | − | − | + | ± | + | + | + | + | + | ± | ± | + | + | + | + | − | + |
| Cl.N[C@@H](Cc1ccccc1)C(=O)NC[C@@H](Cc1ccc(OC(F)(F)F)cc1)B(O)O [Compound 57] | + | − | − | + | + | + | + | + | ± | + | + | − | + | + | − | + | + | − |
